# In patent publication US20230241071A1, “COMBINATION TREATMENT OF LIVER DISORDERS” (Terns Pharmaceuticals, Inc., priority 2021, published 2023):
# Entries after “also recorded” stand apart in the source; their conditions may differ.
# Assays:
# P-glycoprotein (P-gp) = P-glycoprotein (P-gp) (Homo sapiens, UniProt P08183); format: in vitro ADME
# BCRP = target: T1, BCRP (Homo sapiens, UniProt Q9UNQ0)
# T1 sequence (Q9UNQ0 1-655): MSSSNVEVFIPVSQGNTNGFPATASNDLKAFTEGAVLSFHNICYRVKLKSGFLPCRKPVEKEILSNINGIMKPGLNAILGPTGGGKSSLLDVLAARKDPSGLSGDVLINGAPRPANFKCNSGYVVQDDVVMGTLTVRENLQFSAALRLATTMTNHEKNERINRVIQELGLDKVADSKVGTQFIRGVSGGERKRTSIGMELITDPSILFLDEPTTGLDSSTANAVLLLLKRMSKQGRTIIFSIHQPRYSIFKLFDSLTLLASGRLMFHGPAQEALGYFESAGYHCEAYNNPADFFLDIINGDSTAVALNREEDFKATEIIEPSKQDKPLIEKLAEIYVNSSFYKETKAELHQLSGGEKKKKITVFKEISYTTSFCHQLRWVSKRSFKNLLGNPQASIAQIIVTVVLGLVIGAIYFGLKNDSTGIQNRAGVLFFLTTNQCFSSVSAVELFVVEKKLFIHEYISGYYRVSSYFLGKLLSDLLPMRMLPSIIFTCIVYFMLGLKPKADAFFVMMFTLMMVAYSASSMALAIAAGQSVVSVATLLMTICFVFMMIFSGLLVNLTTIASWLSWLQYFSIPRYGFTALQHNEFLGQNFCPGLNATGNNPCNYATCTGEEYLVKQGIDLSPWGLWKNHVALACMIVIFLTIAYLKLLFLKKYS
# [1] = Single-ascending dose trial of Compound 1 in healthy participants: safety and plasma PK
# Experimental: SSAO inhibition was determined by measuring relative reductions in plasma H2O2 generation after addition of an exogenous substrate (benzylamine). […] Safety was assessed for 7 (±3) days after dosing.
# Plasma PK parameters were determined by non-compartmental analysis. […] Percent change in total amine oxidase activity was determined relative to the corresponding pre-dose (baseline) samples.
# [2] = Multiple-ascending dose trial of Compound 1 in healthy participants: safety and PK; format: in vivo, human; details: for Cmax / Tmax / AUC(0-t) / half-life: human, plasma; for Cmax / AUC(0-t): mean (CV %); for Tmax / half-life: median (min, max)
# Experimental: A multiple-ascending dose clinical trial of Compound 1 was performed.
# [3] = all single-dose cohorts, 1-10 mg or placebo (n = 32)
# [4] = single dose 1 mg or placebo (n = 8)
# [5] = single dose 3 mg or placebo (n = 8)
# [6] = single dose 6 mg or placebo (n = 8)
# [7] = single dose 10 mg or placebo (n = 8)
# [8] = 10 mg, 10 mg QD, Last day (of 14)
# Chain of P-glycoprotein (P-gp) (P08183 whole entry): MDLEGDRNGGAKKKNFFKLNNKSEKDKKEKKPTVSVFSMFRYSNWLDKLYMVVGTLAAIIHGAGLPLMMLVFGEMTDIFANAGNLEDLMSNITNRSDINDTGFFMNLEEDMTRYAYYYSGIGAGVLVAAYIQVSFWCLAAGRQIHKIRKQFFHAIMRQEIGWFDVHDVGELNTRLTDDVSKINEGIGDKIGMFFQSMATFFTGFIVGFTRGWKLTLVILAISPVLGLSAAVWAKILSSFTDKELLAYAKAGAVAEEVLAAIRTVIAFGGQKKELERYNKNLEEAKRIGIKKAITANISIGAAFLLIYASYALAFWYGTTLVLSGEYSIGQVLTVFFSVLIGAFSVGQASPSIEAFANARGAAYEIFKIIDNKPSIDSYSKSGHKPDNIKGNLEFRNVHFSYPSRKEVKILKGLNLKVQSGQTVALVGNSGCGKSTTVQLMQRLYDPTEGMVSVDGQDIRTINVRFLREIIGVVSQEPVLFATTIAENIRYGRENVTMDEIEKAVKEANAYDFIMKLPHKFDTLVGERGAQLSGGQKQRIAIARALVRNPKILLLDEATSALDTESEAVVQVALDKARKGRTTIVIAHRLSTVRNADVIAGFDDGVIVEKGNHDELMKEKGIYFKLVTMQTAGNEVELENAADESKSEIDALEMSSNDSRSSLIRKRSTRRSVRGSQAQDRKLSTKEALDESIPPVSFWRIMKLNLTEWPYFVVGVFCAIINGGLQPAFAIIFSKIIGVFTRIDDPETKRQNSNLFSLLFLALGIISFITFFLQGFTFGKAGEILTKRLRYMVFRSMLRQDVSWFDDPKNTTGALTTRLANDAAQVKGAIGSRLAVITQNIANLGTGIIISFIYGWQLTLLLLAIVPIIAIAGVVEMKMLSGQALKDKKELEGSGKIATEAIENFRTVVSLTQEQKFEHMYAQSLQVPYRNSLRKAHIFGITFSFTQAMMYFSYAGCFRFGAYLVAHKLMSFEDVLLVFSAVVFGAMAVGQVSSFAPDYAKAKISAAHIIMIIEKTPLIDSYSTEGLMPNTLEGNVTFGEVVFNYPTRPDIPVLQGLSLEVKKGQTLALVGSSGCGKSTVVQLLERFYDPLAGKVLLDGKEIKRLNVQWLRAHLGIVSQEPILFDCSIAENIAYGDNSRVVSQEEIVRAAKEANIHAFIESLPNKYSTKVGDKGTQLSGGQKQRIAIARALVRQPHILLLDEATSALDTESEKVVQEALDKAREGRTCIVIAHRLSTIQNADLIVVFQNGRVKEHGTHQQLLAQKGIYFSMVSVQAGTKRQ
structure (smiles),measurement,setting,value
Cn1cc(C(=O)O)c2ccc(N3CCC(OCc4c(-c5c(Cl)cccc5Cl)noc4C4CC4)CC3)cc21 [Compound 3],IC50,P-glycoprotein (P-gp),3.92 µM
same,IC50,BCRP,4.39 µM
"N#Cc1nn(-c2cc(Cl)c(Oc3n[nH]c(=O)c4ccccc34)c(Cl)c2)c(=O)[nH]c1=O [Compound 2, 2-(3,5-dichloro-4-((4-oxo-3,4-dihydrophthalazin-1-yl)oxy)phenyl)-3,5-dioxo-2,3,4,5-tetrahydro-1,2,4-triazine-6-carbonitrile]",IC50,BCRP,9.37 µM
"COC1CCN(c2ncc(OC/C(=C/F)CN)cn2)CC1 [Compound 1, (E)-3-fluoro-2-(((2-(4-methoxypiperidin-1-yl)pyrimidin-5-yl)oxy)methyl)prop-2-en-1-amine]",Subject incidence of TEAEs considered possibly treatment-related,[1]; [3],1 (3.1)
same,Subject incidence of any TEAE,[1]; [3],5 (15.6)
same,TEAE frequency: constipation,[1]; [3],1 (3.1)
same,TEAE frequency: contact dermatitis,[1]; [3],2 (6.3)
same,TEAE frequency: dysgeusia,[1]; [3],1 (3.1)
same,TEAE frequency: headache,[1]; [3],1 (3.1)
same,TEAE frequency: sore throat,[1]; [3],1 (3.1)
same,TEAE frequency: upper respiratory tract infection,[1]; [3],1 (3.1)
same,Subject incidence of TEAEs considered possibly treatment-related,[1]; [4],0
same,Subject incidence of any TEAE,[1]; [4],0
same,TEAE frequency: constipation,[1]; [4],0
same,TEAE frequency: contact dermatitis,[1]; [4],0
same,TEAE frequency: dysgeusia,[1]; [4],0
same,TEAE frequency: headache,[1]; [4],0
same,TEAE frequency: sore throat,[1]; [4],0
same,TEAE frequency: upper respiratory tract infection,[1]; [4],0
same,Subject incidence of TEAEs considered possibly treatment-related,[1]; [5],0
same,Subject incidence of any TEAE,[1]; [5],0
same,TEAE frequency: constipation,[1]; [5],0
same,TEAE frequency: contact dermatitis,[1]; [5],0
same,TEAE frequency: dysgeusia,[1]; [5],0
same,TEAE frequency: headache,[1]; [5],0
same,TEAE frequency: sore throat,[1]; [5],0
same,TEAE frequency: upper respiratory tract infection,[1]; [5],0
same,Subject incidence of TEAEs considered possibly treatment-related,[1]; [6],0
same,Subject incidence of any TEAE,[1]; [6],2
same,TEAE frequency: constipation,[1]; [6],0
same,TEAE frequency: contact dermatitis,[1]; [6],2
same,TEAE frequency: dysgeusia,[1]; [6],0
same,TEAE frequency: headache,[1]; [6],0
same,TEAE frequency: sore throat,[1]; [6],1
same,TEAE frequency: upper respiratory tract infection,[1]; [6],0
same,Subject incidence of TEAEs considered possibly treatment-related,[1]; [7],1 (12.5)
same,Subject incidence of any TEAE,[1]; [7],3 (37.5)
same,TEAE frequency: constipation,[1]; [7],1 (12.5)
same,TEAE frequency: contact dermatitis,[1]; [7],0
same,TEAE frequency: dysgeusia,[1]; [7],1 (12.5)
same,TEAE frequency: headache,[1]; [7],1 (12.5)
same,TEAE frequency: sore throat,[1]; [7],0
same,TEAE frequency: upper respiratory tract infection,[1]; [7],1 (12.5)
same,"plasma PK exposure, dose proportionality","[1]; single dose, between 1 and 10 mg",greater than dose proportional
same,safety and tolerability,[1]; single oral dose 1 mg to 10 mg,No clinically relevant adverse events or laboratory abnormalities; also recorded: safe and well tolerated
same,Subject incidence of TEAEs considered possibly treatment-related,[2]; 1 mg QD 7 days (n = 6),1 (16.7) n (%)
same,Subject incidence of any TEAE,[2]; 1 mg QD 7 days (n = 6),2 (33.3) n (%)
same,TEAE frequency: Back pain,[2]; 1 mg QD 7 days (n = 6),0
same,TEAE frequency: Catheter site inflammation,[2]; 1 mg QD 7 days (n = 6),0
same,TEAE frequency: Contusion,[2]; 1 mg QD 7 days (n = 6),0
same,TEAE frequency: Dermatitis contact,[2]; 1 mg QD 7 days (n = 6),1 (16.7)
same,TEAE frequency: Diarrhea,[2]; 1 mg QD 7 days (n = 6),0
same,TEAE frequency: Dizziness,[2]; 1 mg QD 7 days (n = 6),1 (16.7)
same,TEAE frequency: Medical device site reaction,[2]; 1 mg QD 7 days (n = 6),0
same,TEAE frequency: Rhinitis,[2]; 1 mg QD 7 days (n = 6),0
same,TEAE frequency: headache,[2]; 1 mg QD 7 days (n = 6),1 (12.5)
same,Subject incidence of TEAEs considered possibly treatment-related,[2]; 4 mg QD 7 days (n = 6),0 n (%)
same,Subject incidence of any TEAE,[2]; 4 mg QD 7 days (n = 6),2 (33.3) n (%)
same,TEAE frequency: Back pain,[2]; 4 mg QD 7 days (n = 6),0
same,TEAE frequency: Catheter site inflammation,[2]; 4 mg QD 7 days (n = 6),0
same,TEAE frequency: Contusion,[2]; 4 mg QD 7 days (n = 6),0
same,TEAE frequency: Dermatitis contact,[2]; 4 mg QD 7 days (n = 6),2 (33.3)
same,TEAE frequency: Diarrhea,[2]; 4 mg QD 7 days (n = 6),0
same,TEAE frequency: Dizziness,[2]; 4 mg QD 7 days (n = 6),0
same,TEAE frequency: Medical device site reaction,[2]; 4 mg QD 7 days (n = 6),0
same,TEAE frequency: Rhinitis,[2]; 4 mg QD 7 days (n = 6),0
same,TEAE frequency: headache,[2]; 4 mg QD 7 days (n = 6),0
same,time to steady state,[2]; 10 mg QD,7 days
same,Subject incidence of TEAEs considered possibly treatment-related,[2]; 10 mg QD 14 days (n = 6),0 n (%)
same,Subject incidence of any TEAE,[2]; 10 mg QD 14 days (n = 6),6 (100) n (%)
same,TEAE frequency: Back pain,[2]; 10 mg QD 14 days (n = 6),0
same,TEAE frequency: Catheter site inflammation,[2]; 10 mg QD 14 days (n = 6),0
same,TEAE frequency: Contusion,[2]; 10 mg QD 14 days (n = 6),0
same,TEAE frequency: Dermatitis contact,[2]; 10 mg QD 14 days (n = 6),0
same,TEAE frequency: Diarrhea,[2]; 10 mg QD 14 days (n = 6),0
same,TEAE frequency: Dizziness,[2]; 10 mg QD 14 days (n = 6),0
same,TEAE frequency: Medical device site reaction,[2]; 10 mg QD 14 days (n = 6),6 (100)
same,TEAE frequency: Rhinitis,[2]; 10 mg QD 14 days (n = 6),1 (16.7)
same,TEAE frequency: headache,[2]; 10 mg QD 14 days (n = 6),0
same,half-life versus dose,"[2]; 1, 4, 10 mg QD",increased with dose
same,"plasma PK exposure, dose proportionality",[2]; between dose groups on Day 1,greater than dose proportional
same,Cmax,"[2]; 1 mg, 1 mg QD, Day 1",0.568 ng/mL
same,Tmax,"[2]; 1 mg, 1 mg QD, Day 1",1.53 h
same,AUC(0-t),"[2]; 1 mg, 1 mg QD, Last day (of 7)",13.3 ng·h/mL
same,Cmax,"[2]; 1 mg, 1 mg QD, Last day (of 7)",2.75 ng/mL
same,Tmax,"[2]; 1 mg, 1 mg QD, Last day (of 7)",2.51 h
same,AUC(0-t),"[2]; 4 mg, 4 mg QD, Day 1",17.1 ng·h/mL
same,Cmax,"[2]; 4 mg, 4 mg QD, Day 1",5.11 ng/mL
same,Tmax,"[2]; 4 mg, 4 mg QD, Day 1",2.02 h
same,AUC(0-t),"[2]; 4 mg, 4 mg QD, Last day (of 7)",198 ng·h/mL
same,Cmax,"[2]; 4 mg, 4 mg QD, Last day (of 7)",18.6 ng/mL
same,Tmax,"[2]; 4 mg, 4 mg QD, Last day (of 7)",3.03 h
same,AUC(0-t),"[2]; 10 mg, 10 mg QD, Day 1",102 ng·h/mL
same,Cmax,"[2]; 10 mg, 10 mg QD, Day 1",17.7 ng/mL
same,Tmax,"[2]; 10 mg, 10 mg QD, Day 1",1.9 h
same,AUC(0-t),[2]; [8],656 ng·h/mL
same,Cmax,[2]; [8],47.5 ng/mL
same,Tmax,[2]; [8],3.98 h
same,half-life,"[2]; 1 mg QD, Last day (of 7)",136 min
same,half-life,"[2]; 4 mg QD, Last day (of 7)",403 min
same,half-life,"[2]; 10 mg QD, Last day (of 14)",798 min
same,Subject incidence of TEAEs considered possibly treatment-related,[2]; overall Compound 1 (n = 18),1 (5.6) n (%)
same,Subject incidence of any TEAE,[2]; overall Compound 1 (n = 18),10 (55.6) n (%)
same,TEAE frequency: Back pain,[2]; overall Compound 1 (n = 18),0
same,TEAE frequency: Catheter site inflammation,[2]; overall Compound 1 (n = 18),0
same,TEAE frequency: Contusion,[2]; overall Compound 1 (n = 18),0
same,TEAE frequency: Dermatitis contact,[2]; overall Compound 1 (n = 18),3 (16.7)
same,TEAE frequency: Diarrhea,[2]; overall Compound 1 (n = 18),0
same,TEAE frequency: Dizziness,[2]; overall Compound 1 (n = 18),1 (5.6)
same,TEAE frequency: Medical device site reaction,[2]; overall Compound 1 (n = 18),6 (33.3)
same,TEAE frequency: Rhinitis,[2]; overall Compound 1 (n = 18),1 (5.6)
same,TEAE frequency: headache,[2]; overall Compound 1 (n = 18),1 (5.6)
same,safety and tolerability,[2]; up to 10 mg QD for 14 days,mild (grade 1); also recorded: safe and well tolerated
